Data taken from US10973784B2, “Compositions and methods for treating Alzheimer's disease and Parkinson's disease” (Biotie Therapies, Inc., priority 2016, dated 2021).
Where “and” joins values, the source holds several entries; their conditions need not be identical. Equal values may be shown once. Read-outs that look alike come from different tables or passages of the source.

Assays:
[1] = Pharmacokinetic analysis of SYN120 tablets, single oral dose (Example 8); assay type: in vivo, human; details: arithmetic mean ±SD
Experimental: Pharmacokinetic (PK) analysis was performed on 42 subjects (36 males; 6 females) who received SYN120 oral tablets. In this study, subjects received a single oral dose of SYN120 at one of the following doses: 2 mg; 10 mg; 30 mg; 100 mg; 300 mg; and 600 mg. The SYN120 oral tablets used in this study were formulated for immediate release at tablet strengths of 2 mg, 10 mg, and 50 mg. The tablets were formulated using lactose monohydrate, corn starch, sodium starch glycolate, povidone, sodium lauryl sulfate, magnesium stearate, and the coating agent Opadry Yellow. Blood samples were collected at predose and 0.5, 1, 1.5, 2, 3, 4, 6, 8, 12, 16, 24, 32, 36, 48, and 72 hours postdose. During the treatments at 100 mg and higher, the protocol was amended to include an additional blood sample on Study Day 7 (nominal time of 151 hours). Following oral administration, SYN120 absorption was rapid and plasma levels were measurable in all subjects at the first time point (0.5 hours).
Table 14 below provides a summary of the mean PK parameters of plasma SYN120 for all doses.

[2] = Pharmacokinetic analysis of SYN120 tablets, multiple dose once daily (Example 9); assay type: in vivo, human; details: for Ae % / % Fluctuation / CL renal / half-life: arithmetic mean; for Ae %: urine; for CL renal / Cmax / AUC(0-t) / Tmax / concentration at 14 day / half-life: both sexes, human, oral; for CL renal: plasma and urine, read-out: 0-24 Clr; for Cmax / AUC(0-t) / Tmax / concentration at 14 day / half-life: plasma; for Cmax / AUC(0-t) / concentration at 14 day: geometric mean
Experimental: PK analysis in a multiple dose study was performed on 28 subjects (10 males and 18 females) on day 1 and on 27 subjects (10 males and 17 females) on day 14 who received SYN120 oral tablets. The dosing interval was once daily, approximately 40 minutes after a standard breakfast, for up to 21 days. The subjects were administered the same dose of SYN120 daily at one of the following doses: 100 mg; 300 mg; and 600 mg. The SYN120 oral tablets used in this study were the 50 mg tablets as described in Example 8.
Plasma samples were prepared from blood samples for PK analysis collected on days 1 and 14 at the following time points: 0, 0.5, 1, 1.5, 2, 3, 4, 6, 8, 12, and 24 hrs postdose. Additional blood samples were taken following administration on Day 14 at 32, 36, 48, 72, and 168 hrs (day 15 through day 21). In addition, on days 4 and 10, predose blood samples were collected, while on day 7, blood samples were collected predose and 4 hrs postdose. […] Mean plasma SYN120 concentrations at Day 1, (FIG. 7A and FIG. 7B), and at Day 14 (FIG. 8A and FIG. 8B) are also provided.

[3] = target: 5-HT6 receptor (Homo sapiens, UniProt P50406); details: cited from earlier work
[4] = single oral dose 100 mg (males), Cohort D
[5] = single oral dose 300 mg, Cohort F
[6] = single oral dose 600 mg, Cohort G

Chain of 5-HT6 receptor (P50406 whole entry): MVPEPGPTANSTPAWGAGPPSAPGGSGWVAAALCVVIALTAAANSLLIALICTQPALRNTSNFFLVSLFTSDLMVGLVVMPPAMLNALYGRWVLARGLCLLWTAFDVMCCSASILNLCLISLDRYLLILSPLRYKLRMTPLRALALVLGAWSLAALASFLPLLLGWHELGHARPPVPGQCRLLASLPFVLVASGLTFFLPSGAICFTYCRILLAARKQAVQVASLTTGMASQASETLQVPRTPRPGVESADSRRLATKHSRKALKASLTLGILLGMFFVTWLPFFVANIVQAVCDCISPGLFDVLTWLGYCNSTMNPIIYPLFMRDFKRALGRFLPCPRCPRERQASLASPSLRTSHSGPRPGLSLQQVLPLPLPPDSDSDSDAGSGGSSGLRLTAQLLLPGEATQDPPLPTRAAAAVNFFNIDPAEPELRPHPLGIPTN

Structure (SMILES): NC(=O)NC[C@@H]1CCCc2cc(S(=O)(=O)c3cccc(F)c3)ccc21 [SYN120]
- Vs/F ([1]; single oral dose 100 mg (females), Cohort E): 448 L and 448 ± 500 L
- CL/F [1, 4]: 15.8 L/h and 15.8 ± 7.56 L/h
- Vs/F [1, 4]: 227 L and 227 ± 94.2 L
- CL/F [1, 5]: 11.7 ± 4.81 L/h
- Vs/F [1, 5]: 154 ± 57.3 L
- CL/F [1, 6]: 15.7 ± 7.96 L/h
- Vs/F [1, 6]: 246 ± 97.6 L
- Ae % ([2]; Day 1, 100 mg QD): 0.610%
- Ae % ([2]; Day 1, 300 mg QD): 0.857%
- Ae % ([2]; Day 1, 600 mg QD): 0.997%
- % Fluctuation ([2]; Day 14, 100 mg QD): 177%
- Ae % ([2]; Day 14, 100 mg QD): 1.15%
- Tlast ([2]; Day 14, 100 mg QD, median): 168 h
- % Fluctuation ([2]; Day 14, 300 mg QD): 209%
- Ae % ([2]; Day 14, 300 mg QD): 0.988%
- Tlast ([2]; Day 14, 300 mg QD, median): 168 h
- % Fluctuation ([2]; Day 14, 600 mg QD): 212%
- Ae % ([2]; Day 14, 600 mg QD): 0.756%
- Tlast ([2]; Day 14, 600 mg QD, median): 168 h
- CL renal ([2]; 100 mg, Day 1, 100 mg QD): 1.25 mL/min
- CL renal ([2]; 100 mg, Day 14, 100 mg QD): 1.33 mL/min
- CL renal ([2]; 300 mg, Day 1, 300 mg QD): 1.33 mL/min
- CL renal ([2]; 300 mg, Day 14, 300 mg QD): 1.34 mL/min
- CL renal ([2]; 600 mg, Day 1, 600 mg QD): 1.45 mL/min
- CL renal ([2]; 600 mg, Day 14, 600 mg QD): 1.31 mL/min
- Cmax ([2]; 100 mg, Day 1, 100 mg QD): 813 ng/mL
- AUC(0-t) ([2]; 100 mg, Day 1, 100 mg QD, read-out: AUC0-24): 7780 ng·h/mL
- AUC(0-t) ([2]; 100 mg, Day 1, 100 mg QD, read-out: AUC0-last): 7780 ng·h/mL
- Tmax ([2]; 100 mg, Day 1, 100 mg QD, median, read-out: Tmax): 4 h
- Cmax ([2]; 100 mg, Day 14, 100 mg QD): 1240 ng/mL
- AUC(0-t) ([2]; 100 mg, Day 14, 100 mg QD, read-out: AUC0-24): 14200 ng·h/mL
- AUC(0-t) ([2]; 100 mg, Day 14, 100 mg QD, read-out: AUC0-last): 19200 ng·h/mL
- concentration at 14 day ([2]; 100 mg, Day 14, 100 mg QD, read-out: Cmin): 201 ng/mL
- concentration at 14 day ([2]; 100 mg, Day 14, 100 mg QD, read-out: Css): 591 ng/mL
- Tmax ([2]; 100 mg, Day 14, 100 mg QD, median, read-out: Tmax): 3 h
- Cmax ([2]; 300 mg, Day 1, 300 mg QD): 2750 ng/mL
- AUC(0-t) ([2]; 300 mg, Day 1, 300 mg QD, read-out: AUC0-24): 29500 ng·h/mL
- AUC(0-t) ([2]; 300 mg, Day 1, 300 mg QD, read-out: AUC0-last): 29500 ng·h/mL
- Tmax ([2]; 300 mg, Day 1, 300 mg QD, median, read-out: Tmax): 4 h
- Cmax ([2]; 300 mg, Day 14, 300 mg QD): 3470 ng/mL
- AUC(0-t) ([2]; 300 mg, Day 14, 300 mg QD, read-out: AUC0-24): 36000 ng·h/mL
- AUC(0-t) ([2]; 300 mg, Day 14, 300 mg QD, read-out: AUC0-last): 45700 ng·h/mL
- concentration at 14 day ([2]; 300 mg, Day 14, 300 mg QD, read-out: Cmin): 357 ng/mL
- concentration at 14 day ([2]; 300 mg, Day 14, 300 mg QD, read-out: Css): 1500 ng/mL
- Tmax ([2]; 300 mg, Day 14, 300 mg QD, median, read-out: Tmax): 3 h
- Cmax ([2]; 600 mg, Day 1, 600 mg QD): 5180 ng/mL
- AUC(0-t) ([2]; 600 mg, Day 1, 600 mg QD, read-out: AUC0-24): 59600 ng·h/mL
- AUC(0-t) ([2]; 600 mg, Day 1, 600 mg QD, read-out: AUC0-last): 59600 ng·h/mL
- Tmax ([2]; 600 mg, Day 1, 600 mg QD, median, read-out: Tmax): 4 h
- Cmax ([2]; 600 mg, Day 14, 600 mg QD): 5460 ng/mL
- AUC(0-t) ([2]; 600 mg, Day 14, 600 mg QD, read-out: AUC0-24): 56100 ng·h/mL
- AUC(0-t) ([2]; 600 mg, Day 14, 600 mg QD, read-out: AUC0-last): 74000 ng·h/mL
- concentration at 14 day ([2]; 600 mg, Day 14, 600 mg QD, read-out: Cmin): 520 ng/mL
- concentration at 14 day ([2]; 600 mg, Day 14, 600 mg QD, read-out: Css): 2340 ng/mL
- Tmax ([2]; 600 mg, Day 14, 600 mg QD, median, read-out: Tmax): 3.51 h
- Tmax ([2]; Day 14, across dose groups, read-out: median Tmax): 3 to 3.51 h
- Tmax ([2]; Study Day 1, each dose group, read-out: median Tmax): 4 h
- half-life ([2]; Day 14, 100 mg QD): 15.4 h
- half-life ([2]; Day 14, 300 mg QD): 15.5 h
- half-life ([2]; Day 14, 600 mg QD, n = 7): 15 h
- pKi [3]: 9.6
